# Measured values: patent US20060078874A1, “Use of nuclear hormone receptors” (Novo Nordisk A/S, priority 2002, published 2006)
# What was measured:
# naked oocytes (NO) [1] = experiment: Agonistic oocyte assay, naked oocytes (NO / NkO test); assay type: cell-based, mouse; conditions: for % GVBD + PB: NkO test
# Method: (§1) An Agonistic Oocyte Assay Can be Performed as Follows: Oocytes were obtained from immature female mice (C57BL/6J×DBA/2J F1-hybrid, Bomholtgaard, Denmark) weighing 13-16 grams, that were kept under controlled temperature (20-22° C.), light (lights on 06.00-18.00) and relative humidity (50-70%). The mice received an intra-peritoneal injection of 0.2 ml gonadotropins (Gonal-F, Serono) containing 20 IU FSH and 48 hours later the animals were killed by cervical dislocation. The ovaries were dissected out and the oocytes were isolated in Hx-medium (see below) under a stereo microscope by manual rupture of the follicles using a pair of 27 gauge needles. Spherical oocytes displaying an intact germinal vesicle (hereinafter designated GV) were divided in cumulus enclosed oocytes (hereinafter designated CEO) and naked oocytes (hereinafter designated NO) and placed in α-minimum essential medium (α-MEM without ribonucleosides, Gibco BRL, Cat. No. 22561) supplemented with 3 mg/ml bovine serum albumin (BSA, Sigma Cat. No. A-7030), 5 mg/ml human serum albumin (HSA, Statens Seruminstitute, Denmark), 0.23 mM pyruvate (Sigma, Cat. No S-8636), 2 mM glutamine (Flow Cat. No. 16-801), 100 IU/ml penicillin and 100 μg/ml streptomycin (Flow, Cat No. 16-700). This medium was supplemented with 3 mM hypoxanthine (Sigma Cat. No. H-9377) and designated Hx-medium. The oocytes were rinsed three times in Hx-medium and oocytes of uniform size were divided into groups of CEO and NO. CEO and NO were cultured in 4-well multidishes (Nunclon, Denmark) in which each well contained 0.4 ml of Hx-medium. One control well (i.e., 35-45 oocytes cultured in identical medium with no addition of test compound) was always cultured simultaneously with 3 test wells (35-45 oocytes per well supplemented with test compound). The oocytes were cultured in a humidified atmosphere of 5% CO2 in air for 24 hours at 37° C. By the end of the culture period, the number of oocytes with germinal vesicle (hereinafter designated GV), GVBD, and polar body (herein designated PB), respectively, were counted using a stereomicroscope ([…] MZ 12). The percentage GVBD, defined as percentage of oocytes undergoing GVBD per total number of oocytes in that well, was calculated as: % GVBD=100×(number of GVBD+number of PB)/(total number oocytes). The % PB was defined as percentage of oocytes displaying one extruded polar body per total number of oocytes in that well. […] The relative effect of the tested compound is calculated as follows: Relative effect=100×((test GVBD %-negative control GVBD %)/(FF-MAS GVBD %-negative control GVBD %)).
# [2] = tested on: cumulus enclosed oocytes (CEO); experiment: Oocyte maturation assay, cumulus enclosed oocytes (CEO test); assay type: cell-based, mouse
# Method: as §1
# LXRα [3] = biological target: T1, LXRα (Homo sapiens, UniProt Q13133); experiment: Agonist activity against LXRα
# T1 sequence (Q13133 1-447): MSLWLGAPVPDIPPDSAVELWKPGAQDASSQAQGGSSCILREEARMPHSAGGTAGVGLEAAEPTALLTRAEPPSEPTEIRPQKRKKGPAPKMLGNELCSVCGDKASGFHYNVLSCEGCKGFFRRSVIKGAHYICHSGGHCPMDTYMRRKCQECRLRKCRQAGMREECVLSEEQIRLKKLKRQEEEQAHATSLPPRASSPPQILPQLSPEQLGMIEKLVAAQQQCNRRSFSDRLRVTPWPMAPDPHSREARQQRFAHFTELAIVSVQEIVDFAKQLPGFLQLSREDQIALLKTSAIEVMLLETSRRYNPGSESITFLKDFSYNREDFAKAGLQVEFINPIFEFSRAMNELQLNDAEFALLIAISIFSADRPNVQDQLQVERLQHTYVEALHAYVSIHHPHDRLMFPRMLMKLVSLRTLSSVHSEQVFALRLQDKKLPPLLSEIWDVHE
# LXRβ [4] = biological target: T2, LXRβ (Homo sapiens, UniProt P55055); experiment: Agonist activity against LXRβ
# T2 sequence (P55055 1-460): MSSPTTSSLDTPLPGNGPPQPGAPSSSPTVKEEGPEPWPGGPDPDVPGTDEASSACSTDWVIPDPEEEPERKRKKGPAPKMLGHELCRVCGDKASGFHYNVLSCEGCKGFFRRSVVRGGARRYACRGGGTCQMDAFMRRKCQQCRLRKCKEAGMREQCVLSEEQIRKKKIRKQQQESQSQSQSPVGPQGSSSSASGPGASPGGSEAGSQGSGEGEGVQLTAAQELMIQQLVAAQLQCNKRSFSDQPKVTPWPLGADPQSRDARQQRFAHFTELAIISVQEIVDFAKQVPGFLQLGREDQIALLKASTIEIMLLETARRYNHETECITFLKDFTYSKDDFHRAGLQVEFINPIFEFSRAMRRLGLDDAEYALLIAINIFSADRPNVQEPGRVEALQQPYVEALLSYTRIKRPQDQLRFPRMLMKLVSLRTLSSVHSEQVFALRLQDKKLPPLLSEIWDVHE
# PXR = biological target: T3, PXR (Homo sapiens, UniProt O75469); experiment: Agonist activity against PXR
# T3 sequence (O75469 1-434): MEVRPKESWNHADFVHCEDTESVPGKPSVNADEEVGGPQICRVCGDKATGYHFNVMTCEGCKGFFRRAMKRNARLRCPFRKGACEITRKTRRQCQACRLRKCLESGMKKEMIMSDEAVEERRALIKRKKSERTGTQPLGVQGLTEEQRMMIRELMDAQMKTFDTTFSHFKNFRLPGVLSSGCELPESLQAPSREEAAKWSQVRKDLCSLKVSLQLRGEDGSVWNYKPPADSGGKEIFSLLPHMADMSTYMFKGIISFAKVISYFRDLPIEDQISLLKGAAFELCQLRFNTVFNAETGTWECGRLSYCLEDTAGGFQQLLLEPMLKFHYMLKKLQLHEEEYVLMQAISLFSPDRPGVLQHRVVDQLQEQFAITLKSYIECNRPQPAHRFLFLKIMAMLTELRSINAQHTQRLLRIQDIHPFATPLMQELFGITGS
# LXRα [5] = biological target: T1, LXRα; experiment: Recruitment of co-factors to LXRα (HTRF assay); assay type: biochemical
# Description: (§2) The HTRF assay is described in Methods 25 (2001), 54-61. (HTRF is an abbreviation for homogeneous time-resolved fluorescence.)
# (§3) The EC50 value is the dose which leads to a 50% saturation.
# LXRβ [6] = biological target: T2, LXRβ; experiment: Recruitment of co-factors to LXRβ (HTRF assay); assay type: biochemical
# Description: as §2, §3
# FXRalpha = biological target: T4, FXRalpha (Homo sapiens, UniProt Q96RI1); experiment: FFMAS on human FXRalpha (FIG. 2); assay type: biochemical
# T4 sequence (Q96RI1 1-486): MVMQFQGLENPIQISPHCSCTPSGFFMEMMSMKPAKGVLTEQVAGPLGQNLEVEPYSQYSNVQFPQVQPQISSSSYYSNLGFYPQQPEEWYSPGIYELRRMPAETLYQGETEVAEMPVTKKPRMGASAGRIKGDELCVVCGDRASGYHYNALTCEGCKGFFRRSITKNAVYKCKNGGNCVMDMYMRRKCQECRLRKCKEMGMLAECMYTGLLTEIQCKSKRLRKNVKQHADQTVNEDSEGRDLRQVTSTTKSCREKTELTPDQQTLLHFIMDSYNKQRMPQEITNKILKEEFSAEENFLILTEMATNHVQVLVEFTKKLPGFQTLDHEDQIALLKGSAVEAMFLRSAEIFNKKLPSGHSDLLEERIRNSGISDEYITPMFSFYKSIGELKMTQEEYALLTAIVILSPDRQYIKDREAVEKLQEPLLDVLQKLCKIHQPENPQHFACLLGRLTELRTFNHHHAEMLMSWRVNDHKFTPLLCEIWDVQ
# FXRbeta = experiment: FFMAS on mouse FXRbeta (FIG. 3); assay type: biochemical
# LXRα [7] = biological target: T1, LXRα; conditions: Janowski et al. Nature 383 (1996); no direct binding explored; cited from earlier work
# naked oocytes (NO) [8] = conditions: Byskov et al. Nature 374 (1995); cited from earlier work
# [9] = 10 μM, naked oocytes (NO) cultured in vitro for 24 hours in Hx-medium
# [10] = dose which leads to 50% saturation
smiles,measurement,setting,value
"O=C(O)Cc1cccc(OCCCN(Cc2cccc(C(F)(F)F)c2Cl)CC(c2ccccc2)c2ccccc2)c1 [90-8684, 2-(3-{3-[[2-chloro-3-(trifluoromethyl)benzyl](2,2-diphenylethyl)amino]propoxy}phenyl)acetic acid]",% GVBD + PB,naked oocytes (NO) [1]; Hx + 5 μM,45 ± 5%
same,% GVBD + PB,naked oocytes (NO) [1]; Hx + 10 μM,49 ± 8%
same,% GVBD + PB,naked oocytes (NO) [1]; Hx + 15 μM,54 ± 5%
same,Meiosis-inducing effect in an oocyte maturation assay,"naked oocytes (NO) [1]; mouse oocytes, NkO and CEO tests",dose-dependent maturation of the oocytes
same,% GVBD + PB,[2]; Hx + 2.5 μM,69 ± 3%
same,% GVBD + PB,[2]; Hx + 5 μM,71 ± 6%
same,% GVBD + PB,[2]; Hx + 10 μM,86 ± 7%
same,Activity against LXRα,LXRα [3],showed activity
same,Activity against LXRβ,LXRβ [4],showed activity
same,Activity against PXR,PXR,showed activity
"CC(C)=CCC[C@@H](C)[C@H]1CC=C2C3=C(CC[C@@]21C)[C@@]1(C)CC[C@H](O)C(C)(C)[C@@H]1CC3 [FF-MAS, 4,4-dimethyl-5α-cholesta-8,14,24-triene-3β-ol]",Mean Relative Effect,"naked oocytes (NO) [1]; 10 μM, NO, 24 hours, indexed: control 0, FF-MAS 100",100
same,Mean % GVBD,naked oocytes (NO) [1]; [9],86.1%
same,Mean % PB,naked oocytes (NO) [1]; [9],28.5%
same,% GVBD + PB,naked oocytes (NO) [1]; Hx + 10 μM,90 ± 8%
same,% GVBD + PB,[2]; Hx + 10 μM,78 ± 9%
same,Behaviour on human LXRs (LXRα),LXRα [5]; FIGS. 1A and 1B,agonist
same,EC50,LXRα [5]; [10],~0.067 µM
same,Behaviour on human LXRs (LXRβ),LXRβ [6]; FIGS. 1A and 1B,agonist
same,EC50,LXRβ [6]; [10],~0.021 µM
same,Behaviour on human FXRalpha,FXRalpha,partial agonist
same,Behaviour on mouse FXRbeta,FXRbeta,partial agonist
same,Transactivation of LXRα,LXRα [7],able to transactivate LXRα
same,Induction of meiosis in NO in vitro,naked oocytes (NO) [8],induce meiosis
